Source: ChEMBL document CHEMBL4706557, “Synthesis and in vitro and in vivo biological evaluation of novel derivatives of flexicaulin A as antiproliferative agents” (Eur J Med Chem, 2020)

Key:
ECa-109 cell line [1] = experiment: Antiproliferative activity against human EC109 cells assessed as inhibition of cell growth incubated for 72 hrs by SRB assay; type: functional, cell-based; settings: ECa-109, 72 h
TE-1 = experiment: Antiproliferative activity against human TE-1 cells assessed as inhibition of cell growth incubated for 72 hrs by SRB assay; type: functional, cell-based; settings: TE-1, 72 h
MGC-803 = experiment: Antiproliferative activity against human MGC-803 cells assessed as inhibition of cell growth incubated for 72 hrs by SRB assay; type: functional, cell-based; settings: MGC-803, 72 h
MCF7 = experiment: Antiproliferative activity against human MCF7 cells assessed as inhibition of cell growth incubated for 72 hrs by SRB assay; type: functional, cell-based; settings: MCF7, 72 h
ECa-109 cell line [2] = experiment: Induction of mitochondrial depolarization in human EC-109 cells assessed as depolarized cell population at 5 mM measured after 24 hrs by JC1 dye based flow cytometry (reference value: 4.2 %); type: functional
ECa-109 cell line [3] = experiment: Induction of apoptosis in human EC-109 cells assessed as apoptotic rate at 5 mM after 48 hrs by Annexin V-FITC/propidium iodide staining based flow cytometry (reference value: 3.8 %); type: functional
ECa-109 cell line [4] = experiment: Induction of apoptosis in human EC-109 cells assessed as apoptotic rate at 5 mM after 24 hrs by Annexin V-FITC/propidium iodide staining based flow cytometry (reference value: 5.7 %); type: functional
ECa-109 cell line [5] = experiment: Induction of apoptosis in human EC109 cells assessed as increase in intracellular ROS level at 5 mM incubated for 24 hrs by DCFH-DA staining based flow cytometry analysis (reference value: 0.6 %); type: functional

| SMILES | IC50 (MGC-803) | IC50 (MCF7) | IC50 (ECa-109 cell line [1]) | IC50 (TE-1) | Activity (ECa-109 cell line [2]) | Activity (ECa-109 cell line [3]) | Activity (ECa-109 cell line [4]) | Activity (ECa-109 cell line [5]) |
| --- | --- | --- | --- | --- | --- | --- | --- | --- |
| C=C1C(=O)[C@@]23[C@H](O)C[C@@H]4C(C)(C)CCC[C@@]4(COC(C)=O)[C@@H]2[C@@H](O)C[C@H]1[C@H]3O | 8700 nM | 6790 nM | 5240 nM | 6820 nM | – | – | – | – |
| C=C1C(=O)[C@@]23[C@H](O)C[C@@H]4C(C)(C)CCC[C@@]4(COC(C)=O)[C@@H]2[C@@H](O)C[C@H]1[C@H]3OC(=O)c1ccc(F)cc1 | 920 nM | 1340 nM | 8480 nM | 20100 nM | – | – | – | – |
| CC(=O)N[C@@H](CS)C(=O)O [ACETYLCYSTEINE] | – | – | – | – | 4.8% | 4.5% | 6.4% | 0.2% |
| C=C1C(=O)[C@@]23[C@H](O)C[C@@H]4C(C)(C)CCC[C@@]4(COC(C)=O)[C@@H]2[C@@H](O)C[C@H]1[C@H]3OC(=O)CCc1ccccc1 | 1280 nM | 600 nM | 680 nM | 720 nM | – | – | – | – |
| C=C1C(=O)[C@@]23[C@H](O)C[C@@H]4C(C)(C)CCC[C@@]4(COC(C)=O)[C@@H]2[C@@H](O)C[C@H]1[C@H]3OC(=O)c1ccc(Cl)cc1 | 280 nM | 270 nM | 330 nM | 380 nM | – | – | – | – |
| C=C1C(=O)[C@@]23[C@H](O)C[C@@H]4C(C)(C)CCC[C@@]4(COC(C)=O)[C@@H]2[C@@H](O)C[C@H]1[C@H]3OC(=O)c1cccc(Br)c1 | 420 nM | 380 nM | 240 nM | 160 nM | – | – | – | – |
| C=C1C(=O)[C@@]23[C@H](O)C[C@@H]4C(C)(C)CCC[C@@]4(COC(C)=O)[C@@H]2[C@@H](O)C[C@H]1[C@H]3OC(=O)c1ccccc1Br | 520 nM | 460 nM | 510 nM | 370 nM | – | – | – | – |
| C=C1C(=O)[C@]23[C@H](O)[C@H]1CC[C@H]2[C@@]12CO[C@]3(O)[C@@H](O)[C@@H]1C(C)(C)CC[C@@H]2O [ORIDONIN] | – | – | 22000 nM | – | – | – | – | – |
| C=C1C(=O)[C@@]23[C@H](O)C[C@@H]4C(C)(C)CCC[C@@]4(COC(C)=O)[C@@H]2[C@@H](O)C[C@H]1[C@H]3OC(=O)c1ccccc1C | 630 nM | 390 nM | 470 nM | 450 nM | – | – | – | – |
| C=C1C(=O)[C@@]23[C@H](O)C[C@@H]4C(C)(C)CCC[C@@]4(COC(C)=O)[C@@H]2[C@@H](O)C[C@H]1[C@H]3OC(=O)c1ccccc1C(F)(F)F | 790 nM | 400 nM | 420 nM | 320 nM | – | – | – | – |
| C=C1C(=O)[C@@]23[C@H](O)C[C@@H]4C(C)(C)CCC[C@@]4(COC(C)=O)[C@@H]2[C@@H](O)C[C@H]1[C@H]3OC(=O)c1ccc(OC)c(OC)c1 | 570 nM | 140 nM | 270 nM | 340 nM | – | – | – | – |
| C=C1C(=O)[C@@]23[C@H](O)C[C@@H]4C(C)(C)CCC[C@@]4(COC(C)=O)[C@@H]2[C@@H](O)C[C@H]1[C@H]3OC(=O)c1cccc(F)c1 | 2350 nM | 2230 nM | 1630 nM | 1300 nM | – | – | – | – |
| C=C1C(=O)[C@@]23[C@H](O)C[C@@H]4C(C)(C)CCC[C@@]4(COC(C)=O)[C@@H]2[C@@H](O)C[C@H]1[C@H]3OC(=O)c1cccc(C(F)(F)F)c1 | 1150 nM | 290 nM | 330 nM | 370 nM | – | – | – | – |
| C=C1C(=O)[C@@]23[C@H](O)C[C@@H]4C(C)(C)CCC[C@@]4(COC(C)=O)[C@@H]2[C@@H](O)C[C@H]1[C@H]3OC(=O)c1ccccc1 | 470 nM | 200 nM | 310 nM | 330 nM | – | – | – | – |
| C=C1C(=O)[C@@]23[C@H](O)C[C@@H]4C(C)(C)CCC[C@@]4(COC(C)=O)[C@@H]2[C@@H](O)C[C@H]1[C@H]3OC(=O)c1cccc(Cl)c1 | 410 nM | 360 nM | 400 nM | 410 nM | – | – | – | – |
| C=C1C(=O)[C@@]23[C@H](O)C[C@@H]4C(C)(C)CCC[C@@]4(COC(C)=O)[C@@H]2[C@@H](O)C[C@H]1[C@H]3OC(=O)c1ccc(Br)cc1 | 610 nM | 330 nM | 380 nM | 390 nM | – | – | – | – |

Further compounds by falling IC50 (MGC-803), results first:

| IC50 (MGC-803) | IC50 (MCF7) | SMILES | IC50 (ECa-109 cell line [1]) | IC50 (TE-1) | Activity (ECa-109 cell line [2]) | Activity (ECa-109 cell line [3]) | Activity (ECa-109 cell line [4]) | Activity (ECa-109 cell line [5]) |
| --- | --- | --- | --- | --- | --- | --- | --- | --- |
| 2290 nM | 1720 nM | C=C1C(=O)[C@@]23[C@H](O)C[C@@H]4C(C)(C)CCC[C@@]4(COC(C)=O)[C@@H]2[C@@H](O)C[C@H]1[C@H]3OC(=O)c1ccccc1F | 1630 nM | 3630 nM | – | – | – | – |
| 1150 nM | 1170 nM | C=C1C(=O)[C@@]23[C@H](O)C[C@@H]4C(C)(C)CCC[C@@]4(COC(C)=O)[C@@H]2[C@@H](O)C[C@H]1[C@H]3OC(=O)c1ccc(Cl)cc1Cl | 4250 nM | 1240 nM | – | – | – | – |
| 770 nM | 350 nM | C=C1C(=O)[C@@]23[C@H](O)C[C@@H]4C(C)(C)CCC[C@@]4(COC(C)=O)[C@@H]2[C@@H](O)C[C@H]1[C@H]3OC(=O)c1ccc(C(F)(F)F)cc1 | 380 nM | 420 nM | – | – | – | – |
| 710 nM | 410 nM | C=C1C(=O)[C@@]23[C@H](O)C[C@@H]4C(C)(C)CCC[C@@]4(COC(C)=O)[C@@H]2[C@@H](O)C[C@H]1[C@H]3OC(=O)c1ccccc1Cl | 410 nM | 450 nM | – | – | – | – |
| 690 nM | 310 nM | C=C1C(=O)[C@@]23[C@H](O)C[C@@H]4C(C)(C)CCC[C@@]4(COC(C)=O)[C@@H]2[C@@H](O)C[C@H]1[C@H]3OC(=O)c1cccc(Cl)c1Cl | 330 nM | 390 nM | – | – | – | – |
| 660 nM | 480 nM | C=C1C(=O)[C@@]23[C@H](O)C[C@@H]4C(C)(C)CCC[C@@]4(COC(C)=O)[C@@H]2[C@@H](O)C[C@H]1[C@H]3OC(=O)c1cc(Cl)ccc1OC | 560 nM | 460 nM | – | – | – | – |
| 480 nM | 240 nM | C=C1C(=O)[C@@]23[C@H](O)C[C@@H]4C(C)(C)CCC[C@@]4(COC(C)=O)[C@@H]2[C@@H](O)C[C@H]1[C@H]3OC(=O)c1ccc(C)cc1 | 300 nM | 300 nM | – | – | – | – |
| 460 nM | 230 nM | C=C1C(=O)[C@@]23[C@H](O)C[C@@H]4C(C)(C)CCC[C@@]4(COC(C)=O)[C@@H]2[C@@H](O)C[C@H]1[C@H]3OC(=O)c1ccc(OC)cc1 | 290 nM | 250 nM | – | – | – | – |
| 460 nM | 250 nM | C=C1C(=O)[C@@]23[C@H](O)C[C@@H]4C(C)(C)CCC[C@@]4(COC(C)=O)[C@@H]2[C@@H](O)C[C@H]1[C@H]3OC(=O)c1cccc(OC)c1 | 440 nM | 420 nM | – | – | – | – |
| 340 nM | 140 nM | C=C1C(=O)[C@@]23[C@H](O)C[C@@H]4C(C)(C)CCC[C@@]4(COC(C)=O)[C@@H]2[C@@H](O)C[C@H]1[C@H]3OC(=O)c1ccc(CBr)cc1 | 170 nM | 250 nM | – | – | – | – |
| 310 nM | 290 nM | C=C1C(=O)[C@@]23[C@H](O)C[C@@H]4C(C)(C)CCC[C@@]4(COC(C)=O)[C@@H]2[C@@H](O)C[C@H]1[C@H]3OC(=O)c1cccc(C)c1 | 370 nM | 320 nM | – | – | – | – |
| 250 nM | 470 nM | C=C1C(=O)[C@@]23[C@H](O)C[C@@H]4C(C)(C)CCC[C@@]4(COC(C)=O)[C@@H]2[C@@H](O)C[C@H]1[C@H]3OC(=O)CCCBr | 760 nM | 470 nM | – | – | – | – |
